Laboratory results published in patent publication US20220202801A1, “USE OF COMPOUND IN PREPARATION OF DRUG FOR TREATING ATHEROSCLEROSIS” (GenEros Biopharma Ltd., priority 2019, published 2022).

Assays:
[1] = system: atherosclerotic lesions in ApoE knockout mice; assay: Aortic HE and oil red O staining, atherosclerotic lesion scores (Example 1); assay type: in vivo; conditions: for Mild n (number of animal cases with mild lesions) / Moderate n (number of animal cases with moderate lesions) / No lesion n (number of animal cases) / Severe n (number of animal cases with severe lesions): of 8 animals; for animals that had atherosclerosis (histological observation): of 8 aortas examined
Source text: (§1) Methods: SPF grade C57BL/6 ApoE −/−model mice were provided by Guangdong Medical Experimental Animal Center, laboratory animal production license No. SOCK (Guangdong) 2013-0002. Laboratory animal quality certificate number: 44007200048196). Mice were half male and half female, aged 8 to 12 weeks, and 72 animals in total. After four weeks of housing in a SPF-level animal facility, animals with less body weights were disposed. A total of 64 animals were randomly divided into 8 groups, 8 in each group, fed with 10% high-fat food, and received with different treatments. Animals were observed and administered with the medicines by gavage once daily. The body weights were measured once a week and continued for 58 days. […] The test sample was dissolved in dimethyl sulfoxide solution and prepared with 30% PEG300.
(§2) After blood collection, the animals were sacrificed, and the aortic arch together with the heart and thoracic aorta were fixed with neutral formaldehyde and subject to pathological examination. The abdominal aorta was collected and quick-frozen in liquid nitrogen, and stored at −80° C.
a) HE staining: aortic arch was sliced and HE stained. The plaques were observed under optical microscope.
b) Oil red O staining: aortic arch was sliced and oil red O stained. The plaques were observed under optical microscope.

ApoE knockout mice [2] = assay: Blood lipid metabolism TG, TCHO, HDL-c, LDL-c (Example 2); assay type: in vivo
Source text: Methods: A total of 130 SPF grade C57BL/6 ApoE −/− model male mice aged 8 weeks were purchased from Charles River Laboratories (Beijing, China) (animal license number: SCXK (Beijing) 2016-0001, animal qualification certificate No.: 11400700331337). After one week of acclimatization in a SPF-grade animal facility, the animals with less weights were discarded and the rest was randomly divided into 11 groups, with 8 animals in each group. Except for the healthy control group, the rest were fed with 10% high-fat food (the first day of the high-fat diet was recorded as D1). Starting from the 8th week of the high-fat diet, each group of animals was orally given solvents or corresponding drugs, and the volume of administration was 10 ml/kg, once a day for 8 weeks. Animals were observed and administered by gavage once a day and the body weight were measured once a week for 56 days. […] The store solution of the test samples was dissolved in dimethyl sulfoxide solution and prepared with 30% PEG300.
At the end of the experiment, the animals were euthanized by inhalation of carbon dioxide. Blood was taken from the heart, and centrifuged at 3000 r/min at a low temperature centrifuge for 10 min to separate the serum. The levels of total cholesterol TC, triglyceride TG, high-density lipoprotein HDL-C, and low-density lipoprotein LDL-C were measured, and the remaining serum was stored in a refrigerator at −80° C.
Before the start of the experiment, animal blood samples were analyzed for blood lipid metabolism, including conventional triglyceride (TG), total cholesterol (TCHO), high-density lipoprotein (HDL-c) and low-density lipoprotein (LDL-c). After high-fat or ordinary food feeding for 8 weeks, the blood lipid levels were measured again. After the drug treatment was started, blood lipid measurements were performed every four weeks until the end of the experiment.

VCAM-1 = assay: Immunohistochemistry of aortic wall, VCAM-1; assay type: in vivo, mice; conditions: for aorta (VCAM-1) signal expression in blood vessels: IHC-P×400, single animal micrograph; for VCAM-1 average optical density: aortic wall
Source text: as §1, §2
c) Immunohistochemistry: The thoracic aorta was sliced and detected by immunohistochemistry for the expression of CD68, intercellular adhesion molecule-1 (ICAM-1), and vascular cell adhesion Molecule-1 (VCAM-1).

ApoE knockout mice [3] = assay: Four blood lipids in serum of ApoE knockout mice (Example 1); assay type: in vivo; conditions: for HDL-C / LDL-C / TC / TG: serum, half male and female
Source text: as §1
At the end of the experiment, animals were anesthetized with pentobarbital sodium. Blood was collected from the orbital venous plexus, and centrifuged at 3000 r/min at a low temperature for 10 min to separate the serum. The levels of total cholesterol TC, triglyceride TG, high-density lipoprotein HDL-C, and low-density lipoprotein LDL-C were measured, and the remaining serum was stored in a refrigerator at −80° C.
Statistical analysis: Data were expressed as the mean plus or minus the standard deviation (x± s), and analyzed by SPSS21.0 statistical software. […] The level of test is α=0.05.

## O=C(N/N=C/c1coc2ccccc2c1=O)c1cccnc1 [Sample B]
[1]; medium doses, preventive treatment
  formation of arterial plaque (pathological results): could delay the formation of arterial plaque in ApoE knockout mice to a certain extent
[1]; 1 mg/kg body weight
  Mild n (number of animal cases with mild lesions): 2
  Moderate n (number of animal cases with moderate lesions): 2
  No lesion n (number of animal cases): 1
  Severe n (number of animal cases with severe lesions): 3
[1]; 2 mg/kg body weight
  Mild n (number of animal cases with mild lesions): 3
  Moderate n (number of animal cases with moderate lesions): 1
  No lesion n (number of animal cases): 4
  Severe n (number of animal cases with severe lesions): 0
[1]; 5 mg/kg body weight
  Mild n (number of animal cases with mild lesions): 3
  Moderate n (number of animal cases with moderate lesions): 2
  No lesion n (number of animal cases): 1
  Severe n (number of animal cases with severe lesions): 2
[1]; 1 mg/kg
  animals that had atherosclerosis (histological observation): 7 cases
[1]; 2 mg/kg
  animals that had atherosclerosis (histological observation): 4 cases
[1]; 5 mg/kg
  animals that had atherosclerosis (histological observation): 7 cases
[1]; overall, aortic pathology Example 1
  effect on atherosclerotic lesions compared with the statin group: equivalent to or better than that of the statin group
[1]; score 0-3 per Table 8, 1 mg/kg body weight
  Scores (atherosclerotic lesion score, average of the group): 1.88 ± 1.13
[1]; score 0-3 per Table 8, 2 mg/kg body weight
  Scores (atherosclerotic lesion score, average of the group): 0.62 ± 0.74
[1]; score 0-3 per Table 8, 2 mg/kg body weight, listed as sample B
  Scores (atherosclerotic lesion score, average of the group): lower than the model control group
[1]; score 0-3 per Table 8, 5 mg/kg body weight
  Scores (atherosclerotic lesion score, average of the group): 1.62 ± 1.06
ApoE knockout mice [2]
  effect on high-density lipoprotein (HDL-c) level compared with the vehicle group: no obvious effect
  effect on low-density lipoprotein (LDL-c) level compared with the vehicle group: significantly reduce
  effect on total cholesterol (TCHO) level compared with the vehicle group: significantly reduce
  effect on triglyceride (TG) level compared with the vehicle group: significantly reduce
VCAM-1; 1 mg/kg
  aorta (VCAM-1) signal expression in blood vessels: low to medium
VCAM-1; 2 mg/kg
  aorta (VCAM-1) signal expression in blood vessels: low to medium
VCAM-1; 5 mg/kg
  aorta (VCAM-1) signal expression in blood vessels: low to medium
VCAM-1; 1 mg/kg gavage QD
  VCAM-1 average optical density: 1.24 ± 0.99 ×10^−2
VCAM-1; 2 mg/kg gavage QD, 2 mg/kg
  VCAM-1 average optical density: 1.54 ± 1.11 ×10^−2
VCAM-1; 2 mg/kg gavage QD, listed as Nib2, 2 mg/kg
  VCAM-1 average optical density: reduced expression
VCAM-1; 5 mg/kg gavage QD
  VCAM-1 average optical density: 1.69 ± 0.85 ×10^−2
ApoE knockout mice [3]; Example 1, overall
  regulation on blood lipid levels (overall): have the effect of improving blood lipids
ApoE knockout mice [3]; 1 mg/kg body weight
  HDL-C: 1.75 ± 0.69 mmol/L
  LDL-C: 6.19 ± 2.64 mmol/L
  TC: 19.56 ± 5.66 mmol/L
  TG: 0.91 ± 0.69 mmol/L
ApoE knockout mice [3]; 2 mg/kg body weight
  HDL-C: 1.68 ± 0.39 mmol/L
  LDL-C: 5.71 ± 1.80 mmol/L
  TC: 19.01 ± 4.64 mmol/L
  TG: 0.81 ± 0.30 mmol/L
ApoE knockout mice [3]; 5 mg/kg body weight
  HDL-C: 1.71 ± 0.45 mmol/L
